Source: patent US12110279B2, “Triazolones, tetrazolones, and imidazolones, or their salts, and pharmaceutical compositions comprising the same” (Yuhan Corporation, priority 2021, dated 2024)
Counter-ions that a name gives are not always drawn. Like-named read-outs stand apart in the source and are kept apart here.

What was measured:
Assay type in all cases: biochemical
[1] = target: T1, recombinant human MAO-A (monoamine oxidase-A) (Homo sapiens, UniProt P21397); assay: Amplex Red HRP-coupled amine oxidase activity evaluation, recombinant human MAO-A; conditions: substrate 0.5 mM tyramine; read-out: Inhibitory Activity (IC50, nM) MAO-A
T1 construct: purchased Sigma-Aldrich
T1 sequence (P21397 1-527): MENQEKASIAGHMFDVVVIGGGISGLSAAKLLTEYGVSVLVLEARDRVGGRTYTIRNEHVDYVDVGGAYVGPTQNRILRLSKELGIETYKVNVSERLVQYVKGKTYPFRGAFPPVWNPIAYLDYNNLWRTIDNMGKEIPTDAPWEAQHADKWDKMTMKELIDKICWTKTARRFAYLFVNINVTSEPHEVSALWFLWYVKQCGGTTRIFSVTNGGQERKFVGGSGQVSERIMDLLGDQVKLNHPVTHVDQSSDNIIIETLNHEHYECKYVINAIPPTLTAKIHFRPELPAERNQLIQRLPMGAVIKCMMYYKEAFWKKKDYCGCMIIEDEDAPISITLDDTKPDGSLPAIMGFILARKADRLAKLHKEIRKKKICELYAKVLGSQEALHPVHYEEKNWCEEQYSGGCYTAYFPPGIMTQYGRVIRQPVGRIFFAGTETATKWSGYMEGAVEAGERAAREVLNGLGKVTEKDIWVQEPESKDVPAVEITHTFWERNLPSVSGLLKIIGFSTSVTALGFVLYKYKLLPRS
Method: [The source words this procedure for another target and says it was used here with some conditions changed.] (§1) The compounds according to the present technology were evaluated in terms of activity on recombinant human VAP-1 (R&D systems) by measuring the level of hydrogen peroxide in horseradish peroxidase (HRP)-coupled reaction using Amplex Red Hydrogen Peroxide Assay Kit (Molecular Probes, Invitrogen, USA). The experiment was carried out at room temperature using benzylamine as a substrate. In the HRP-coupled reaction, hydrogen peroxide oxidation of 10-acetyl-3,7-dihydroxyphenoxazine (Amplex Red reagent) produces resorufin, which is a highly fluorescent compound. Briefly, the test compound was dissolved in dimethyl sulfoxide (DMSO) at a concentration of 20 mM. The dose-response assessment was made by 1:3 serial dilution in DMSO, thereby creating an 8-point curve. The concentration of the upper part was controlled according to the efficacy of the compounds, followed by dilution with a reaction buffer solution to obtain a final DMSO concentration of less than 1%. To each well of a 96 black well plate, human VAP-1 purified in 50 mM sodium phosphate buffer solution (pH7.4) was added. The test compounds dissolved in DMSO were incubated with the human VAP-1 enzymes at 37° C. for 30 minutes. After 30-minute incubation, each well was added with a reaction mixture containing 200 uM Amplex Red reagent prepared from 50 mM sodium phosphate buffer solution (pH 7.4), 1 mM benzylamine, and 1 U/mL HRP. Fluorescence intensity was measured at several time points during 1-2 hours using a microplate reader (Flexstation3, Molecular Devices) under the wavelength condition exciting at 544 nm and reading the emission at 590 nm. The inhibitory effect of the compounds was measured as a decrease (%) in the signal rate as compared to the control group without any inhibitor (only diluted DMSO). Data was fixed to a logistic model with four variables and IC50 value was calculated using GraphPad Prism program.

recombinant human VAP-1 = target: T2, recombinant human VAP-1 (Homo sapiens, UniProt Q16853); assay: Amplex Red HRP-coupled amine oxidase activity evaluation, recombinant human VAP-1; conditions: substrate 1 mM benzylamine; 30 min preincubation at 37° C.; read-out: Inhibitory Activity (IC50, nM) human VAP-1
T2 construct: purchased R&D systems
T2 sequence (Q16853 1-763): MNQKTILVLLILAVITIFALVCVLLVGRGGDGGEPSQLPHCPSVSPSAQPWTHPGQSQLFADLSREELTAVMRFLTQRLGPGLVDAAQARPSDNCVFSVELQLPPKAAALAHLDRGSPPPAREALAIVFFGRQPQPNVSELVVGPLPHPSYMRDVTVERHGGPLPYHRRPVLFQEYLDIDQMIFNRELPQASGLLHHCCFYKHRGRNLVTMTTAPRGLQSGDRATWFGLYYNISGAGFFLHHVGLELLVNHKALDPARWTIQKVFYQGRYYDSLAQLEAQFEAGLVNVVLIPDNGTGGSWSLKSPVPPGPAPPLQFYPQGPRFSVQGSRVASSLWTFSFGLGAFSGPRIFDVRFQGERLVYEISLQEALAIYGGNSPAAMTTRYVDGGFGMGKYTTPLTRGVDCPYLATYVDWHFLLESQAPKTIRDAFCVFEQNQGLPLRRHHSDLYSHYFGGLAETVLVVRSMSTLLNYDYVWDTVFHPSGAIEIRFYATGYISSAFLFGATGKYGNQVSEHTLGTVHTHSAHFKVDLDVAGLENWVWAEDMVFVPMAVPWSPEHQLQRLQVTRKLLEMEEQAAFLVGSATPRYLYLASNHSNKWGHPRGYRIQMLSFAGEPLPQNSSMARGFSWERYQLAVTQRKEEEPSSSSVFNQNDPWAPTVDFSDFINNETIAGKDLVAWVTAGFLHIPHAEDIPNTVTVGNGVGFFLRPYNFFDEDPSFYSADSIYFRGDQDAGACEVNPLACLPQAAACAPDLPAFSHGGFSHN
Method: as §1

[2] = target: T3, recombinant human DAO (diamine oxidase) (Homo sapiens, UniProt P19801); assay: Amplex Red HRP-coupled amine oxidase activity evaluation, recombinant human DAO
T3 construct: purchased R&D systems
T3 sequence (P19801 20-751): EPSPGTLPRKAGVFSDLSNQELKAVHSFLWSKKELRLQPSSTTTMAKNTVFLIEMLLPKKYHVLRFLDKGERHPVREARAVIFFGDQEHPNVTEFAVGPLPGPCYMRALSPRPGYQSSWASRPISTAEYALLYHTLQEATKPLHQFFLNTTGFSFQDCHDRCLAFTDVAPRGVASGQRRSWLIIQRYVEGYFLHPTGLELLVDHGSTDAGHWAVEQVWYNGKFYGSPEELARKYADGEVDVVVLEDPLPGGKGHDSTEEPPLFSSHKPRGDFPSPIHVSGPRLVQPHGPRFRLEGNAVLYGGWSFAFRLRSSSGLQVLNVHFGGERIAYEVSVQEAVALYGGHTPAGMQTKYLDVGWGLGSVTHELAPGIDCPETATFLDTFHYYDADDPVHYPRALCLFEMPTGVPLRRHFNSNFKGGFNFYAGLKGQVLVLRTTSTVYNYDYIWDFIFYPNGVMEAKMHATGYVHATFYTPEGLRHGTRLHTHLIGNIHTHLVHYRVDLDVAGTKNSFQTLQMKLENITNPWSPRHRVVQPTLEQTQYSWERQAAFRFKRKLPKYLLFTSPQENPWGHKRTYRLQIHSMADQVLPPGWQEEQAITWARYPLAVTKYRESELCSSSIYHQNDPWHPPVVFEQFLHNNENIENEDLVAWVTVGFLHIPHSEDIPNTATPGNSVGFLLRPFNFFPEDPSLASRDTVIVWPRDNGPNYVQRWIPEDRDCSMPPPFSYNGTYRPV
Method: [The source words this procedure for another target and says it was used here with some conditions changed.] as §1

[3] = target: T4, recombinant human MAO-B (monoamine oxidase-B) (Homo sapiens, UniProt P27338); assay: Amplex Red HRP-coupled amine oxidase activity evaluation, recombinant human MAO-B; conditions: substrate 1 mM benzylamine; read-out: Inhibitory Activity (IC50, nM) MAO-B
T4 construct: purchased Sigma-Aldrich
T4 sequence (P27338 1-520): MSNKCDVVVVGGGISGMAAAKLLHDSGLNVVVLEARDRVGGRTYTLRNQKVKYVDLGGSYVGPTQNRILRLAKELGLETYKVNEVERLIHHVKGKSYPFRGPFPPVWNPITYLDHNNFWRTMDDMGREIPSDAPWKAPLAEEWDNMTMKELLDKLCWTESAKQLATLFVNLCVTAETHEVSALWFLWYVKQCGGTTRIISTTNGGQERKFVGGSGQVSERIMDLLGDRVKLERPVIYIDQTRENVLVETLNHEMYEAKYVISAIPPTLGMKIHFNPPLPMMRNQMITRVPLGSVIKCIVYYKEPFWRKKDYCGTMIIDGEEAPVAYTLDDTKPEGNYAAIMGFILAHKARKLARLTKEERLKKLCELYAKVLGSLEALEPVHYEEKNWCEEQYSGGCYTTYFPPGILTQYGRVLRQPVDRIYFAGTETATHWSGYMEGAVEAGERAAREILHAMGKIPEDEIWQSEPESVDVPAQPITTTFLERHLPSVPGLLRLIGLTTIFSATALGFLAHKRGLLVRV
Method: [The source words this procedure for another target and says it was used here with some conditions changed.] as §1

[4] = substrate 1 mM putrescine, read-out: Inhibitory Activity (IC50, nM) DAO

SMILES	IC50 [1] [nM]	IC50 (recombinant human VAP-1) [nM]	IC50 [2] [nM]	IC50 [3] [nM]	IC50 [2, 4] [nM]
Cc1cc(-c2ccc(Cn3c(C)nn(CC(CN)=C(F)F)c3=O)s2)cc2c1NC(=O)CC2 [Example 7, 6-[5-[[1-[2-(aminomethyl)-3,3-difluoro-allyl]-3-methyl-5-oxo-1,2,4-triazol-4-yl]methyl]-2-thienyl]-8-methyl-3,4-dihydro-1H-quinolin-2-one trifluoroacetate]	> 100000	1		> 100000	> 100000
CCn1cc(-c2ccc(Cn3ccn(CC(CN)=C(F)F)c3=O)s2)cn1 [Example 52, 1-[2-(aminomethyl)-3,3-difluoro-allyl]-3-[[5-(1-ethylpyrazol-4-yl)-2-thienyl]methyl]imidazol-2-one trifluoroacetate]	> 100000	> 100		60200	192
CCn1cc(-c2ccc(C)c(-n3nnn(CC(CN)=C(F)F)c3=O)n2)ccc1=O [Example 24, 5-[6-[4-[2-(aminomethyl)-3,3-difluoro-allyl]-5-oxo-tetrazol-1-yl]-5-methyl-2-pyridyl]-1-ethyl-pyridin-2-one trifluoroacetate]	> 100000	> 100		> 100000	> 100000
CCn1cc(-c2ccc(-n3nnn(CC(CN)=C(F)F)c3=O)s2)ccc1=O [Example 9, 5-[5-[4-[2-(aminomethyl)-3,3-difluoro-allyl]-5-oxo-tetrazol-1-yl]-2-thienyl]-1-ethyl-pyridin-2-one trifluoroacetate]	> 100000	0.4		203	3.1
NCC(Cn1nnn(-c2cccc(-c3ccc(N4CCNCC4)cc3)c2)c1=O)=C(F)F [Example 11, 1-[2-(aminomethyl)-3,3-difluoro-allyl]-4-[3-(4-piperazin-1-ylphenyl)phenyl]tetrazol-5-one trifluoroacetate]	> 100000	7	351	> 100000	
CS(=O)(=O)c1ccc(-c2cccc(Cn3nnn(CC(CN)=C(F)F)c3=O)c2)cc1 [Example 27, 1-[2-(aminomethyl)-3,3-difluoro-allyl]-4-[[3-(4-methylsulfonylphenyl)phenyl]methyl]tetrazol-5-one trifluoroacetate]	> 100000	1		48400	513
CN(C)c1ccc(-c2csc(-n3nnn(CC(CN)=C(F)F)c3=O)c2)cn1 [Example 38, 1-[2-(aminomethyl)-3,3-difluoro-allyl]-4-[4-[6-(dimethylamino)-3-pyridyl]-2-thienyl]tetrazol-5-one trifluoroacetate]	> 100000	0.8		768	> 100000

Further lines, results first:

IC50 [1] [nM]	IC50 (recombinant human VAP-1) [nM]	IC50 [2] [nM]	IC50 [3] [nM]	IC50 [2, 4] [nM]	SMILES
36900	2.9	56	4400		NCC(Cn1nnn(-c2cncc(-c3ccc4c(c3)OCO4)c2)c1=O)=C(F)F [Example 48, 1-[2-(aminomethyl)-3,3-difluoro-allyl]-4-[5-(1,3-benzodioxol-5-yl)-3-pyridyl]tetrazol-5-one trifluoroacetate]
> 100000	0.5		43	38	CN1C(=O)CCc2cc(-c3ccc(-n4nnn(CC(CN)=C(F)F)c4=O)cc3)ccc21 [Example 21, 6-[4-[4-[2-(aminomethyl)-3,3-difluoro-allyl]-5-oxo-tetrazol-1-yl]phenyl]-1-methyl-3,4-dihydroquinolin-2-one trifluoroacetate]
> 100000	0.7		7800	12	Cc1cc(-c2cccc(-n3nnn(CC(CN)=C(F)F)c3=O)c2)cc2c1NC(=O)CC2 [Example 13, 6-[3-[4-[2-(aminomethyl)-3,3-difluoro-allyl]-5-oxo-tetrazol-1-yl]phenyl]-8-methyl-3,4-dihydro-1H-quinolin-2-one trifluoroacetate]
> 100000	1.7		> 100000	> 100000	CCn1cc(-c2ccc(Cn3c(C)nn(CC(CN)=C(F)F)c3=O)s2)cn1 [Example 1, 2-[2-(aminomethyl)-3,3-difluoro-allyl]-4-[[5-(1-ethylpyrazol-4-yl)-2-thienyl]methyl]-5-methyl-1,2,4-triazol-3-one trifluoroacetate]
70900	0.8		206	1500	NCC(Cn1nnn(Cc2cccc(-c3ccc4c(c3)OCO4)c2)c1=O)=C(F)F [Example 30, 1-[2-(aminomethyl)-3,3-difluoro-allyl]-4-[[3-(1,3-benzodioxol-5-yl)phenyl]methyl]tetrazol-5-one trifluoroacetate]
